Data on 18 compounds can be found in patent US8003627B2, “Urokinase inhibitors” (Universiteit Antwerpen, priority 2005, dated 2011).

Where two headings read alike, the source gives them in different places. A value given as a limit tells only on which side of the number the result lay.

The target in test [1] is T1, trypsin (Bos taurus, UniProt P00760).
T1 sequence (P00760 24-246): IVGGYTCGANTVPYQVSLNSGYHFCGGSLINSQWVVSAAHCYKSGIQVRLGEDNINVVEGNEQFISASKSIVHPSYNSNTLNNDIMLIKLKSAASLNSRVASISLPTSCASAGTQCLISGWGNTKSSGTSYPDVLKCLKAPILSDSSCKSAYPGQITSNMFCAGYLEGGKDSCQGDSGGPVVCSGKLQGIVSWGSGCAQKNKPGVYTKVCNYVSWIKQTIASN
Description: Selectivity: trypsin inhibition, chromogenic substrate BAPNA. The format is biochemical. The conditions noted are these: 425 μM substrate, Tris pH 8.2. The procedure: (§1) The IC50 values for plasmin, tPA, thrombin and FXa were determined in the same way as for uPA. […] FX is activated with Russel's Viper Venom.
(§2) Approximately 5 mU of enzyme, and 145 μl of buffer. For tPA and thrombin Tris buffer, pH 8.3, for FXa, Tris buffer pH 8.3 with 2.5 mM CaCl2, for plasmin Tris buffer pH 7.4, and for trypsin Tris buffer pH 8.2 was used. The selectivity index was calculated as (IC50 Enzyme X)/IC50 uPA, where X is tPA, thrombin, plasmin or FXa.

In test [2] the target is FXa (Homo sapiens, UniProt P00742). Briefly: Selectivity: FXa inhibition, chromogenic substrate S-2772. The format is biochemical. Conditions: for inhibition at 250 µM: read-out: % inhibition at given concentration, FXa. Here is the method:
as §1, §2

In test [3] the target is T2, plasmin (Homo sapiens, UniProt P00747).
T2 construct: uPA mediates the proteolytic cleavage of plasminogen to give plasmin
Briefly: Selectivity: plasmin inhibition, chromogenic substrate S-2366. The format is biochemical. The procedure: as §1, §2

Test [4] concerns the target thrombin (Homo sapiens, UniProt P00734). Briefly: Selectivity: thrombin inhibition, chromogenic substrate S-2366. Type of test: biochemical. The procedure: as §1, §2
Test [5] deals with tPA (Homo sapiens, UniProt P00750). Briefly: Selectivity: tPA inhibition, chromogenic substrate S-2288. The conditions noted are these: 1.25 mM substrate, Tris pH 8.3. The format is biochemical. The procedure:
as §1, §2

Test [6] deals with T3, uPA (Homo sapiens, UniProt P00749). Briefly: biochemical. Also noted: purchased Sigma-Aldrich. The format is biochemical. Here is the method:
The substrate was obtained from Chromogenix. The human enzyme was obtained from Sigma-Aldrich, the mouse uPA was obtained from Molecular Innovations.Inc (USA). […] A 50 mM Tris buffer, pH 8.8, was used. […] Activity measurements were routinely performed in duplicate. […] IC50 values were obtained by fitting the data with the 4 parameter logistics equation using Grafit 5. v=(vrange)/(1+exp(s*ln(abs(I0/IC50))))+back s: slope factor back: background v: rate I0: inhibitor concentration range: the fitted uninhibited value minus the background.
The equation assumes that y falls with increasing x.
(§3) Inhibitor stock solutions were prepared in DMSO and stored at −20° C. […] For a simple pseudo-first-order inactivation process, the activity after incubation with inhibitor (vi) varies with the inhibitor concentration (i) as described in the following equation: vi=v0·e^−kit, where v0 is the activity in absence of inhibitor, k is the second-order rate constant of inactivation, and t is the time.

For test [7], the target named is T3, uPA. Conditions: Tamura et al. 2000; cited from earlier work.
The target in test [8] is T3, uPA. Type of test: biochemical. Also noted: purchased Sigma-Aldrich. Conditions: apparent second order rate constant, 250 μM substrate. The procedure: as §3
Where [9] appears, read: 522 μM substrate, Tris pH 8.3 with […] CaCl2, read-out: IC50 (μM) FXa.
Setting [10] is: 580 μM substrate, Tris pH 7.4, read-out: IC50 (μM) Plasmin.
Setting [11] is: 580 μM substrate, Tris pH 8.3, read-out: IC50 (μM) Thrombin.
Where [12] appears, read: 15-min pre-incubation at 37° C, 250 μM S-2444, Tris pH 8.8, read-out: IC50 (nM) uPA.

FXa, sequence (P00742 235-488 limits assumed): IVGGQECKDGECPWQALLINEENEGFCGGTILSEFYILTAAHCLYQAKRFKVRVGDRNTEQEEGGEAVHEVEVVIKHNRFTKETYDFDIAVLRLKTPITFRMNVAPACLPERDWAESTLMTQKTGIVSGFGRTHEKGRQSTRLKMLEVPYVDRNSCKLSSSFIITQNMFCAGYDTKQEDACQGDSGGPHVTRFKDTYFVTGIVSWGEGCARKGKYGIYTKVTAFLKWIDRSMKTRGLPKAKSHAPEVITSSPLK
FXa, sequence (P00742 41-179 partner limits assumed): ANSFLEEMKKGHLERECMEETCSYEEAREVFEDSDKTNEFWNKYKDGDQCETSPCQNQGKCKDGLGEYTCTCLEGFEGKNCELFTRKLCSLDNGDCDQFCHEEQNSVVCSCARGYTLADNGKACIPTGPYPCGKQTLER
T2 sequence (P00747 581-810 limits assumed, species assumed): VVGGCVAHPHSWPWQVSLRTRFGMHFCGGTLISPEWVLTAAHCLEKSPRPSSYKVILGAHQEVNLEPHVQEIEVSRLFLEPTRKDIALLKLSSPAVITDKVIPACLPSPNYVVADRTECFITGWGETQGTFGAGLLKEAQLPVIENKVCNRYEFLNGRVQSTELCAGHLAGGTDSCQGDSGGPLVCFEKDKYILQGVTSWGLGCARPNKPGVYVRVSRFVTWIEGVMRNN
T2 sequence (P00747 97-580 partner limits assumed, species assumed): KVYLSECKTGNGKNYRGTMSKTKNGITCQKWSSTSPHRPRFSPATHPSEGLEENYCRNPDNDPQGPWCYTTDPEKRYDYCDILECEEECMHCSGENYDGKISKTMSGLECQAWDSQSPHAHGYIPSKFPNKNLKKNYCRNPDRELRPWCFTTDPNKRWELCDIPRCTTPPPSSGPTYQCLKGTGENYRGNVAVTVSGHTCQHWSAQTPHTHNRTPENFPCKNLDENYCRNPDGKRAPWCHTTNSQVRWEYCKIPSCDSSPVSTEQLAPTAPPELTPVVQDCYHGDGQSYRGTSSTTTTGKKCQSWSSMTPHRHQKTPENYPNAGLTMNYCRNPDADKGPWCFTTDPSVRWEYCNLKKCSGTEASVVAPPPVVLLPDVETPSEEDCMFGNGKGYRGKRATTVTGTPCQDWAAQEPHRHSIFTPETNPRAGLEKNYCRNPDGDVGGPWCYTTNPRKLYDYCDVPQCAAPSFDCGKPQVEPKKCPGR
tPA, sequence (P00750 36-562, species assumed): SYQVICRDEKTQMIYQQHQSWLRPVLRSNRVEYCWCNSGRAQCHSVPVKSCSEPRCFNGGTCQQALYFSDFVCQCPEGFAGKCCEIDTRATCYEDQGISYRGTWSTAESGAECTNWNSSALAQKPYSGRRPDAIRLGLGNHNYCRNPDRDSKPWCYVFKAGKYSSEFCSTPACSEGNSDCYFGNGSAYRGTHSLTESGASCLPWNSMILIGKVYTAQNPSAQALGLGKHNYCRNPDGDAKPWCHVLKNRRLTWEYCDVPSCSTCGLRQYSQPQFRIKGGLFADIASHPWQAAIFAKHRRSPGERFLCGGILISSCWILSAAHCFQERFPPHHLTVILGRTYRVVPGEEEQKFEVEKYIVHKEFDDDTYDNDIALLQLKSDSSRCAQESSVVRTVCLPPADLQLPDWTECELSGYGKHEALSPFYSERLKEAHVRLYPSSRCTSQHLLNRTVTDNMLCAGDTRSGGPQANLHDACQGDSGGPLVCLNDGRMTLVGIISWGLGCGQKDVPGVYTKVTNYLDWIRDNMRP

Regarding `CC(C)c1ccc(C(C)C)c(S(=O)(=O)NC(Cc2ccc(NC(=N)N)cc2)P(=O)(Oc2ccccc2)Oc2ccccc2)c1C(C)C` (centres unmarked) [Compound 7f, Diphenyl 1-(2,3,6-tri-isopropylbenzenesulfonyl)amino-2-(4-guanidinophenyl)-ethanephosphonate], the IC50 (as a rule, the concentration at which inhibition is half-maximal) in test [1] is 5.6 ± 0.04 µM; in test [2] (setting [9]) it was 20 ± 2 µM; in test [3] (setting [10]) it was ~125 µM; in test [5], 16 ± 1 µM. Also, the “% inhibition at given concentration, Thrombin” value in test [4] (at 250 μM) amounted to 60% @.
With “Diphenyl 1-(naphthalenesulfonylamino)-2-(4-guanidinophenyl)-ethanephosphonate [Compound 7e]”, the IC50 in test [1] came out at 0.28 ± 0.05 µM; in test [2] (setting [9]), 27 ± 2 µM; in test [3] (setting [10]), 1.2 ± 0.1 µM; in test [4] (setting [11]), 8.1 ± 0.8 µM; in test [5], 44 ± 10 µM.
For the compound `N=C(N)Nc1ccc(CC(NC(=O)c2ccccc2)P(=O)(Oc2ccccc2)Oc2ccccc2)cc1` (centres unmarked) [Compound 7c, Diphenyl 1-(benzoylamino)-2-(4-guanidinophenyl)-ethanephosphonate], the IC50 in test [2] is > 250 µM; in test [3] (setting [10]), 14 ± 1 µM; in test [5], 125 µM; in test [6] (pH 8.8, read-out: IC50 (nM) uPA) it was 114 ± 11 nM.
On to `CS(=O)(=O)NC(Cc1ccc(NC(=N)N)cc1)P(=O)(Oc1ccccc1)Oc1ccccc1` (centres unmarked) [Compound 7g, Diphenyl 1-(methylsulfonylamino)-2-(4-guanidinophenyl)-ethanephosphonate], for which the IC50 in test [2] is ~250 µM; in test [3] (setting [10]) it was 11 ± 1 µM; in test [4], ~125 µM; in test [5] it was 8 ± 2 µM.
Take Z-D-Ser-Ala-Arginal: in test [7], the IC50 is 0.019 µM and the “selectivity ratio toward tPA” value was “more than 130”.
For `CCC(NC(=O)OCc1ccccc1)(c1ccc(C(=N)N)cc1)P(=O)(Oc1ccccc1)Oc1ccccc1` (centres unmarked) [Compound 8c, Diphenyl 1-(N-benzyloxycarbonylamino)-1-(4-amidinophenyl)propanephosphonate], the IC50 in test [1] stood at 3.5 ± 0.2 µM; in test [2] (setting [9]) it was 13.7 ± 1.3 µM; in test [3] (setting [10]), 6.2 ± 0.4 µM; in test [4] (setting [11]) it was 17 ± 2 µM; in test [5] it was 68 ± 9 µM.
Consider `CCOC(=O)NC(Cc1ccc(NC(=N)N)cc1)P(=O)(Oc1ccccc1)Oc1ccccc1` (centres unmarked) [Compound 35c, Ethyl 1-(diphenoxyphosphoryl)-2-(4-guanidinophenyl)ethylcarbamate], for which the IC50 in test [3] (setting [10]) amounted to 16 ± 3 µM; in test [4] (setting [11]), 3.8 ± 0.2 µM; in test [5] it was 57 ± 14 µM; in test [6] (setting [12]), 8 ± 3 nM. Besides, the “kapp (M^−1 · s^−1) uPA” value in test [8] amounted to 40000 M⁻¹ s⁻¹.
Take `Cc1ccccc1S(=O)(=O)NC(Cc1ccc(NC(=N)N)cc1)P(=O)(Oc1ccccc1)Oc1ccccc1` (centres unmarked) [Compound 7d, Diphenyl 1-(o-toluenesulfonylamino)-2-(4-guanidinophenyl)-ethanephosphonate]: the IC50 in test [1] is 0.17 ± 0.01 µM; in test [3] (setting [10]) it was 17 ± 2 µM; in test [4] (setting [11]), 11.9 ± 1.7 µM; in test [5], 7.3 ± 0.5 µM. Also, in test [2] (at 62 μM), the “% inhibition at given concentration, FXa” value was 59% @.
For the compound `N=C(N)Nc1ccc(CC(NC(=O)OCc2ccccc2)P(=O)(Oc2ccccc2)Oc2ccccc2)cc1` (centres unmarked) [Compound 7b, Diphenyl 1-(benzyloxycarbonylamino)-2-(4-guanidinophenyl)-ethanephosphonate], the IC50 was found to be 100 ± 20 µM in test [2] (setting [9]), 3 ± 0.6 µM in test [3] (setting [10]), 2.4 ± 0.4 µM in test [4] (setting [11]) and 12 ± 0.8 µM in test [5].
For `CC(=O)Nc1ccc(OP(=O)(Oc2ccc(NC(C)=O)cc2)C(Cc2ccc(NC(=N)N)cc2)NC(=O)OCc2ccccc2)cc1` (centres unmarked) [Compound 9b, Di-(4-acetamidophenyl) 1-(benzyloxycarbonylamino)-2-[(4-guanidino)phenyl]ethanephosphonate], the IC50 is 100 ± 24 µM in test [2] (setting [9]); 0.9 ± 0.2 µM in test [3] (setting [10]); 0.39 ± 0.03 µM in test [4] (setting [11]); 7 ± 1 µM in test [5]; 4.2 ± 0.9 nM in test [6] (setting [12]).
On to `CNC(=O)NC(Cc1ccc(NC(=N)N)cc1)P(=O)(Oc1ccccc1)Oc1ccccc1` (centres unmarked) [Compound 39a, Diphenyl 2-(4-guanidinophenyl)-1-(3-methylureido)ethylphosphonate], for which, in test [6], the IC50 stood at 101000 ± 6800 nM.
As to `N=C(N)c1ccc(CC(NC(=O)OCc2ccccc2)P(=O)(Oc2ccccc2)Oc2ccccc2)cc1` (centres unmarked) [Compound 8b, Diphenyl 1-(N-benzyloxycarbonylamino)-2-(4-amidinophenyl)ethanephosphonate], in test [2], the inhibition at 250 µM was 65%. The values for the IC50 in test [3] (setting [10]), in test [4] (setting [11]) and in test [5] were 1.2 ± 0.1 µM, 20 ± 2 µM and 4 ± 2 µM, respectively.
In the case of `CC(=O)Nc1ccc(OP(=O)(Oc2ccc(NC(C)=O)cc2)C(Cc2ccc(NC(=N)N)cc2)NS(C)(=O)=O)cc1` (centres unmarked) [Compound 9c, Di-(4-acetamidophenyl) 1-(methylsulfonylamino)-2-(4-guanidinophenyl)-ethanephosphonate], the inhibition at 250 µM in test [2] amounted to 55%. The IC50 amounted to 2 ± 0.4 µM in test [3] (setting [10]), 2.35 ± 0.06 µM in test [4] (setting [11]), 3.7 ± 0.4 µM in test [5] and 3.5 ± 0.5 nM in test [6] (setting [12]).
For the compound `N=C(N)Nc1ccc(CC(NC(=O)NCc2ccccc2)P(=O)(Oc2ccccc2)Oc2ccccc2)cc1` (centres unmarked) [Compound 39b, Diphenyl 1-(3-benzylureido)-2-(4-guanidinophenyl)ethylphosphonate], half-maximal inhibition in test [6] (IC50) required 43900 ± 3900 nM.
As to `N=C(N)c1ccc(C(NC(=O)OCc2ccccc2)P(=O)(Oc2ccccc2)Oc2ccccc2)cc1` (centres unmarked) [Compound 8a, Diphenyl 1-(N-benzyloxycarbonylamino)-1-(4-amidinophenyl)methanephosphonate], the IC50 in test [2] (setting [9]) turned out to be 6 ± 0.2 µM; in test [3] (setting [10]) it was 3.6 ± 0.4 µM; in test [4] (setting [11]), 0.288 ± 0.006 µM; in test [5], 66 ± 7 µM.
In the case of `CC(=O)NC(Cc1ccc(NC(=N)N)cc1)P(=O)(Oc1ccccc1)Oc1ccccc1` (centres unmarked) [Compound 41, Diphenyl 1-acetamido-2-(4-guanidinophenyl)ethylphosphonate], the results for the IC50 in test [3] (setting [10]), in test [4] (setting [11]) and in test [6] were 57 ± 1.3 µM, 32.2 ± 1.4 µM and 9.9 ± 0.8 nM, respectively.
For the compound `N=C(N)Nc1ccc(CC(N)P(=O)(Oc2ccccc2)Oc2ccccc2)cc1` (centres unmarked) [Compound 34d, Diphenyl 1-amino-2-(4-guanidinophenyl)ethylphosphonate], the IC50 in test [6] (setting [12]) amounted to 1600 ± 130 nM.
On to `COC(=O)NC(Cc1ccc(NC(=N)N)cc1)P(=O)(Oc1ccccc1)Oc1ccccc1` (centres unmarked) [Compound 35a, Methyl 1-(diphenoxyphosphoryl)-2-(4-guanidinophenyl)ethylcarbamate], for which the IC50 in test [3] was 12.8 ± 2 µM; in test [4], 16.6 ± 2.3 µM; in test [5], 23 ± 6 µM; in test [6] (setting [12]) it was 3.1 ± 0.5 nM. Moreover, the “kapp (M^−1 · s^−1) uPA” value in test [8] amounted to 62000 M⁻¹ s⁻¹.
